From patent US20260207614A1, “IRAK4 DEGRADERS AND USES THEREOF” (Kymera Therapeutics, Inc., priority 2022, published 2026)
Entries after “also recorded” stand apart in the source; their conditions may differ.

Tests used:
[1] = Distribution studies in rats; type: in vivo
Description: In in vivo pharmacokinetic (PK) studies conducted in rats, dogs, and monkeys.

[2] = system: TLR agonist (lipopolysaccharide and R848) and IL-1β-induced proinflammatory cytokine production; assay: In vitro cytokine release assays in PBMCs; type: cell-based; details: LPS
[3] = system: patients with hidradenitis suppurativa (HS); assay: Phase 1 Part C clinical efficacy in hidradenitis suppurativa; type: in vivo, human; details: for ΔAN Count / ΔPain NRS / ΔPeak Pruritis NRS / Responders: AN Count 0/1/2 / Responders: HiSCR50 / Responders: HiSCR75 / Responders: Pain NRS30: HS; for ΔAN Count: deepest reduction across Days 28 through 42; for ΔPain NRS / ΔPeak Pruritis NRS: deepest reduction, past week; for Responders: AN Count 0/1/2 / Responders: HiSCR50 / Responders: HiSCR75 / Responders: Pain NRS30: highest response across Days 28 through 42
Description: Baseline Characteristics and Disposition: A total of 21 patients were enrolled in the trial, including 13 HS and 8 AD patients, with median age 31-40 years (13 female, 8 male). Disease severity for HS was moderate (10), severe (1) and very severe (2) and for AD was mild (1), moderate (5) and severe (2). One HS and 1 AD patient withdrew from treatment early due to personal reasons, resulting in 12 HS and 7 AD patients evaluable for PD and clinical efficacy.
HS clinical endpoints collected in the study included AN count, Pain NRS. Pruritus NRS and HS-PGA. […] Analyses were done for all patients, including very severe (n=12), and for patients with only moderate to severe disease (n=10).

IRAK4 [4] = biological target: T1, IRAK4 (Rattus norvegicus, UniProt A0A8I6G1H3); assay: In vitro IRAK4 degradation, rat splenocytes; type: cell-based; details: read-out: DC50 (IRAK4 degradation)
T1 construct: endogenous in cells; host or cells: rat splenocytes

IRAK4 [5] = biological target: T2, IRAK4 (Canis lupus familiaris, UniProt A0A8I3S726); assay: In vitro IRAK4 degradation, dog PBMCs; type: cell-based; details: read-out: DC50 (IRAK4 degradation)
T2 construct: endogenous in cells; host or cells: dog PBMCs
T2 sequence (A0A8I3S726 1-460): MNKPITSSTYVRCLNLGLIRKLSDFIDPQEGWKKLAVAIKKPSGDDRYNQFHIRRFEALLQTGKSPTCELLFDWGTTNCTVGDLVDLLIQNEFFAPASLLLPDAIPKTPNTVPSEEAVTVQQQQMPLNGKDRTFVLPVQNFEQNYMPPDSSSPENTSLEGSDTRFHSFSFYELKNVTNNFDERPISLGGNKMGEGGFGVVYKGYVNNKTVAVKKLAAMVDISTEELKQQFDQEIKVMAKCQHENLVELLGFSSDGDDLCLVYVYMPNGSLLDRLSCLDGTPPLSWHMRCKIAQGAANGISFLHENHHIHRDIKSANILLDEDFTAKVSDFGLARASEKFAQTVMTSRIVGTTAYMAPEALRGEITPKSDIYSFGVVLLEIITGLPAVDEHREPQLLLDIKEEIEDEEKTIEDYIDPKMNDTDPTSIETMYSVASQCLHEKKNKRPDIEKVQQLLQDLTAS

[6] = Phase 1 SAD safety and tolerability; type: in vivo, human
Description: Part A: Part A is a double-blind, randomized, placebo-controlled, SAD, sequential group study in 56 adult HVs, divided in 7 cohorts of eight HVs each. Seven ascending single doses (1 dose level per cohort) will be investigated. One or more additional cohorts may be added, as needed.
• Treatment-emergent (serious) adverse events ([S]AEs) • Concomitant medication • Clinical laboratory tests • Hematology • Coagulation • Chemistry • Urinalysis and urine microscopy • Vital signs • Pulse Rate (bpm) • Systolic blood pressure (BP) (mm Hg) • Diastolic BP (mm Hg) • Respiratory rate • Temperature • Safety electrocardiogram and Holter monitoring • Heart Rate (bpm). PR, QRS, QT, QTcF
All data will be fully listed.

[7] = blinded SAD, study treatment related, per Investigator

T1 sequence (A0A8I6G1H3 1-461): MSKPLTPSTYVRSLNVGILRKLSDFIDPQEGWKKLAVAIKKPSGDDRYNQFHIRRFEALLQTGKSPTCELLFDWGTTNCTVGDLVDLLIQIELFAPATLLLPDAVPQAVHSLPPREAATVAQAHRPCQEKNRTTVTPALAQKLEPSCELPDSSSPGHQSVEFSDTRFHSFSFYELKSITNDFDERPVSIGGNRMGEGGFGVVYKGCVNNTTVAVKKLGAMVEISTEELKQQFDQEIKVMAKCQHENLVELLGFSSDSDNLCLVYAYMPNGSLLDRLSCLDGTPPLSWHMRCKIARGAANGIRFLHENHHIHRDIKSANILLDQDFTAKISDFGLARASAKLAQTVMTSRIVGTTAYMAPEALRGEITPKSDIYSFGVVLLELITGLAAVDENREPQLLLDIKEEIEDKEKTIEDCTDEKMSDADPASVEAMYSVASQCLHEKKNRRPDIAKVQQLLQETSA

Cn1c(=O)n([C@@H]2CCC(=O)NC2=O)c2cccc(C#CCOC3CCN(C[C@H]4CC[C@H](n5cc(NC(=O)c6cnn7ccc(N8C[C@H]9C[C@@H]8CO9)nc67)c(C(F)F)n5)CC4)CC3)c21 [Compound A, 5-((1R,4R)-2-oxa-5-azabicyclo[2.2.1]heptan-5-yl)-N-(3-(difluoromethyl)-1-((1r,4R)-4-((4-((3-(1-(2,6-dioxopiperidin-3-yl)-3-methyl-2-oxo-2,3-dihydro-1H-benzo[d]imidazol-4-yl)prop-2-yn-1-yl)oxy)piperidin-1-yl)methyl)cyclohexyl)-1H-pyrazol-4-yl)pyrazolo[1,5-a]pyrimidine-3-carboxamide]
penetration into the central nervous system (CNS) [1]: limited penetration
tissue distribution [1]: extensively distributed into tissues
IC50 values, inhibition of proinflammatory cytokine production (IL-6, TNF-α, GM-CSF, IL-8) [2]: low nM range
disease severity in patient HS-10 ([3]; FIG. 36): from moderate to mild
AN count of 0/1/2 response rate ([3]; HS patients, FIG. 30): 42-50%
AN count reduction ([3]; HS patients, FIG. 30): 46-51%
HiSCR50 response rate ([3]; HS patients, FIG. 31): 42-50%
reduction in Pain NRS ([3]; HS patients, FIG. 32): 49-50%
response rate in Pain NRS30 ([3]; HS patients, FIG. 32): 50-60%
reduction in Peak Pruritus NRS ([3]; HS patients, FIG. 33): 62-68%
ΔAN Count ([3]; All Patients (n = 12)): −46%
ΔPain NRS ([3]; All Patients (n = 12)): −49%
ΔPeak Pruritis NRS ([3]; All Patients (n = 12)): −62%
Responders: AN Count 0/1/2 ([3]; All Patients (n = 12)): 42%
Responders: HiSCR50 ([3]; All Patients (n = 12)): 42%
Responders: HiSCR75 ([3]; All Patients (n = 12)): 25%
Responders: Pain NRS30 ([3]; All Patients (n = 12)): 50%
ΔAN Count ([3]; Moderate/Severe (n = 10)): −51%
ΔPain NRS ([3]; Moderate/Severe (n = 10)): −55%
ΔPeak Pruritis NRS ([3]; Moderate/Severe (n = 10)): −68%
Responders: AN Count 0/1/2 ([3]; Moderate/Severe (n = 10)): 50%
Responders: HiSCR50 ([3]; Moderate/Severe (n = 10)): 50%
Responders: HiSCR75 ([3]; Moderate/Severe (n = 10)): 50%
Responders: Pain NRS30 ([3]; Moderate/Severe (n = 10)): 60%
HS-PGA scores ([3]; all HS patients): stable or improved (5 of 12)
lesions and symptoms in patient HS-3 ([3]; moderate disease at baseline, FIG. 35): complete clearing of lesions and symptoms
DC50 (IRAK4 [4]): < 10 nM
DC50 (IRAK4 [5]): < 10 nM
Abdominal pain, Severity ([6]; Cohort SAD 5): Mild
Diarrhea, Severity ([6]; Cohort SAD 5): Mild
Headache, Severity ([6]; Cohort SAD 5): Mild (x2)
Palpitations, Severity ([6]; Cohort SAD 5): Mild
Headache, Severity ([6]; Cohort SAD 5, SAD 5 FE, SAD 6): Moderate (x3)
Diarrhea, Severity ([6]; Cohort SAD 5 FE): Mild
Nausea, Severity ([6]; Cohort SAD 5 FE): Mild
Vomiting, Severity ([6]; Cohort SAD 5 FE): Mild (x2)
Muscle weakness, Severity ([6]; Cohort SAD 6): Mild
Myalgia, Severity ([6]; Cohort SAD 6): Mild
Nausea, Severity ([6]; Cohort SAD 6): Mild (x2)
ECG changes ([6]; SAD): No significant ECG changes
QTcF prolongation ([6]; SAD): no clinically significant QTcF prolongation
serious adverse events ([6]; SAD): no serious adverse events; also recorded: No SAEs
AST elevation ([6]; SAD 5, n=1, resolution ~Day 21): 3.8 ×ULN
ALT elevation ([6]; SAD 5, n=1, slow resolution to baseline): 2.5 ×ULN
Abdominal pain, #AEs (subjects) [6, 7]: 1
Diarrhea, #AEs (subjects) [6, 7]: 2 (2)
Headache, #AEs (subjects) [6, 7]: 5 (4)
Muscle weakness, #AEs (subjects) [6, 7]: 1
Myalgia, #AEs (subjects) [6, 7]: 1
Nausea, #AEs (subjects) [6, 7]: 3 (3)
Palpitations, #AEs (subjects) [6, 7]: 1
Vomiting, #AEs (subjects) [6, 7]: 2 (1)
safety and tolerability ([6]; single doses, healthy volunteers): safe and well-tolerated
